From US20170290806A1, “PCSK9 Inhibitors and Methods of Use Thereof” (Temple University-Of The Commonwealth System of Higher …, priority 2014, published 2017)
Entries after “also recorded” stand apart in the source; their conditions may differ.

Columns and labels:
PCSK9/LDLR interaction [1] = biological target: T1, PCSK9/LDLR interaction (Homo sapiens, UniProt Q8NBP7); assay: Recombinant cell based assay: LDLR upregulation in HEK293 cells transfected with LDLR and PCSK9; design: the human full-length PCSK9 was cloned; expressed in transfected cells; host or cells: HEK-293T; conditions: for increase in the LDLR (intracellular recombinant LDLR upregulation) as comparable to control / EC50: HEK293 cells transfected with LDLR and PCSK9; for increase in the LDLR (intracellular recombinant LDLR upregulation) as comparable to control: compounds 1-50 μM; for EC50: compounds 1-50 uM, 43 hours incubation, read-out: EC50 of LDLR up-regulation; for IC50s (increase in the LDLR): PCSK9/LDLR HEK293 recombinant cell based assay
Method: (§1) HEK-293T cells were seeded into 96 well plates in a DMEM containing 10% Fetal Bovine Serum media and incubated overnight at 37° C. Cells were transiently transfected with LDLR and PCSK9 cDNA constructs using the Lipofectamine-LTX. Compounds (1-50 uM) were added, followed by additional 43 hours of incubation. The cells were lysed and analyzed for LDLR expression and cell viability determined as described in FIG. 7.
as §1, with “8. […] Compound SBC-130,022 has no effect in up-regulating LDLR.” for “7.”
(§2) Considering the difficulty in assaying the LDLR/PCSK9 binding, the approach was to develop and implement an innovative recombinant cell based assay where the full-length PCSK9 and the LDLR genes are expressed into HEK-293 cells, and allowed to decrease the LDLR level by PCSK9 (FIG. 7). Compounds that prevent the LDLR degradation without preventing the auto-processing and secretion of the PCSK9 were selected as potential candidates and were further evaluated using additional cell based assay using endogenously expressed LDLR in liver cells (HepG2 cells).
Preparation of constructs: the human full-length PCSK9 was cloned. The cDNA encoding the PCSK9 sequence with and without a FLAG epitope tag (DYKDDDDK) were cloned by PCR and subcloned into mammalian expression vector containing the cytomegalovirus promoter-enhancer (pCMV-PCSK9-FLAG) (pCDNA3.1/PCSK9). For LDLR, the coding sequence was constructed without tag in mammalian expression vector (pCMV-LDLR) (pCDNA3.1/LDLR). The constructs were confirmed by sequence analysis
The pCDNA3.1/PCSK9, and the pCDNA3.1/LDLR constructs were used to transiently transfect mammalian cells. The human embryonic kidney (HEK)-293 cells were seeded (1×10^5 cells/well) in 24-well plates. Expression plasmids ([…]) were transiently transfected into HEK-293 cells with lipofectamine (Invitrogen) according to the manufacturer's protocol. Twenty four to forty eight hours after transfection, cells were harvested. The cells were then be lysed. Both cell lysate and supernatant were subjected to SDS-PAGE and immunoblot analysis using an anti-PCSK9 or LDLR antibody.
240 compounds identified from the virtual screen in a cell based assay for their potential to upregulate the LDLR in the presence of PCSK9 were tested as described above. Initial screening was done using 50 μM of the compounds. Each compound was added to the cell media in triplicates, and intrecellar LDLR was detected as described above. Each set of compounds were screened at least twice with all appropriate controls. Compounds that upregulate the LDLR were selected for further evaluation.
From the initial screening, 24 compounds were identified as potential hits. Hits confirmation was repeated in triplicates using 50 μM.

PCSK9/LDLR interaction [2] = biological target: T1, PCSK9/LDLR interaction; assay: LDLR upregulation in HepG2 cells; type: cell-based; design: the human full-length PCSK9 was cloned; expressed in transfected cells; conditions: for up-regulation of endogenously expressed LDLR: compounds 1-50 uM; for EC50: endogenously expressed LDLR, transfected with PCSK9, compounds 1-50 uM, 43 hours, read-out: EC50 of up-regulation of LDLR
Method: as §1, with “HepG2” for “HEK-293T”, “MEM” for “DMEM”, “with” for “with LDLR and”, “8.” for “7.”
as §2
The compounds SBC-110,424, SBC-110, 433, and SBC-115,076 were also validated for their ability to up-regulate the endogenously expressed LDLR in HepG2 cells.

T1 sequence (Q8NBP7 153-692): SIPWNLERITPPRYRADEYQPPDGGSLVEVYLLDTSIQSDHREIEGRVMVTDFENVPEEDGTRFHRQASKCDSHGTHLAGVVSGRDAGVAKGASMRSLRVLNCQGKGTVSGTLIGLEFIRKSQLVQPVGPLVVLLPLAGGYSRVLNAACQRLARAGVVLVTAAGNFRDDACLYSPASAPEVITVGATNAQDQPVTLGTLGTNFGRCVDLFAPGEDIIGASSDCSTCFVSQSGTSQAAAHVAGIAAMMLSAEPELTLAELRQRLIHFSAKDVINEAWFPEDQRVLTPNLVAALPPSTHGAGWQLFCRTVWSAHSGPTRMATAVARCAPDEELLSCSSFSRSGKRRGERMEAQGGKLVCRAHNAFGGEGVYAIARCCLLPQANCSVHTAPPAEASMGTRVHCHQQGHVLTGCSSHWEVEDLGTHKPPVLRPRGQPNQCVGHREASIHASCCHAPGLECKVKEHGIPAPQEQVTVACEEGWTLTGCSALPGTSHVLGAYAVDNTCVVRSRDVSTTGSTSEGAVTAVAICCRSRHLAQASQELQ
T1 sequence (Q8NBP7 31-152 partner limits assumed): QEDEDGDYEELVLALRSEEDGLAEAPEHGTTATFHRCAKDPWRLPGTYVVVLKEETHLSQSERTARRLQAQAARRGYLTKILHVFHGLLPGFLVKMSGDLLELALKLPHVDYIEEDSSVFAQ

Row | SMILES | increase in the LDLR (intracellular recombinant LDLR upregulation) as comparable to control (PCSK9/LDLR interaction [1]) | EC50 (PCSK9/LDLR interaction [1]) [µM] | IC50s (increase in the LDLR) (PCSK9/LDLR interaction [1]) | up-regulation of endogenously expressed LDLR (PCSK9/LDLR interaction [2]) | EC50 (PCSK9/LDLR interaction [2]) [µM]
1 | Cc1cc(C(=O)C2=C(O)C(=O)N(CCCN3CCOCC3)C2c2ccncc2)ccc1OCc1ccccc1 (stereo not shown) [SBC-115,076] | concentration dependent increase | 3.1 | low uM range | concentration dependent up-regulation | 0.43
2 | CC(C)(C(=O)NCc1ccco1)n1cc(NC(=O)c2cccnc2)cn1 [SBC-110,424] | concentration dependent increase; also recorded: significant potency | 3.5 | low uM range | concentration dependent up-regulation | 2
